pIC50: −log10 of the molar value. Activity calls are given as the source filed them. The calls are words filed in the database; no cut-off is given here.
Key:
[1] = target: T1, P-selectin (Homo sapiens) (UniProt P16109); assay: Inhibitory activity against P-selectin was determined; IA=Inactive
T1 sequence (whole entry): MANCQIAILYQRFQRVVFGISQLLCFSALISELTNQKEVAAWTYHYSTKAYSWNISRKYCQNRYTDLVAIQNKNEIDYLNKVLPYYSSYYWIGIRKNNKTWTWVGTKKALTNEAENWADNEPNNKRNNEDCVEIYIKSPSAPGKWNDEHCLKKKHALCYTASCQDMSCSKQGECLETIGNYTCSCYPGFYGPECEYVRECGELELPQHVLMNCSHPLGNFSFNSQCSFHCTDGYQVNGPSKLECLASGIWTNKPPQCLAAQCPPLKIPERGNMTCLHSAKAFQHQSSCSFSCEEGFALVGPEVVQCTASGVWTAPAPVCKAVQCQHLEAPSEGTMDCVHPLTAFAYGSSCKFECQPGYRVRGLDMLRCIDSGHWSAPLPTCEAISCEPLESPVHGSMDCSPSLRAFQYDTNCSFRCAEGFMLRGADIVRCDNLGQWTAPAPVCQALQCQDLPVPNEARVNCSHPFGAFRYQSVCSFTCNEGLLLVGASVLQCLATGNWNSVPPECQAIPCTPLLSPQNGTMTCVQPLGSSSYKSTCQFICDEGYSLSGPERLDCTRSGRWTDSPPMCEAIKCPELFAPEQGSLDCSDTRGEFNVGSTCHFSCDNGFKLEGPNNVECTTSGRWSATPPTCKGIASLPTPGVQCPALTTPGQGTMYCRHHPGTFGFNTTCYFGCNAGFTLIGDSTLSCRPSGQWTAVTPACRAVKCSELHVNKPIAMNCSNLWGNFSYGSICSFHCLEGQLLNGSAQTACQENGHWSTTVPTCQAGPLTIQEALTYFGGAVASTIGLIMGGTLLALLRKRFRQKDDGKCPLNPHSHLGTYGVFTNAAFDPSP

[2] = target: T2, E-selectin (Homo sapiens) (UniProt P16581); assay: Inhibitory activity against Selectin E was determined; IA=Inactive
T2 sequence (whole entry): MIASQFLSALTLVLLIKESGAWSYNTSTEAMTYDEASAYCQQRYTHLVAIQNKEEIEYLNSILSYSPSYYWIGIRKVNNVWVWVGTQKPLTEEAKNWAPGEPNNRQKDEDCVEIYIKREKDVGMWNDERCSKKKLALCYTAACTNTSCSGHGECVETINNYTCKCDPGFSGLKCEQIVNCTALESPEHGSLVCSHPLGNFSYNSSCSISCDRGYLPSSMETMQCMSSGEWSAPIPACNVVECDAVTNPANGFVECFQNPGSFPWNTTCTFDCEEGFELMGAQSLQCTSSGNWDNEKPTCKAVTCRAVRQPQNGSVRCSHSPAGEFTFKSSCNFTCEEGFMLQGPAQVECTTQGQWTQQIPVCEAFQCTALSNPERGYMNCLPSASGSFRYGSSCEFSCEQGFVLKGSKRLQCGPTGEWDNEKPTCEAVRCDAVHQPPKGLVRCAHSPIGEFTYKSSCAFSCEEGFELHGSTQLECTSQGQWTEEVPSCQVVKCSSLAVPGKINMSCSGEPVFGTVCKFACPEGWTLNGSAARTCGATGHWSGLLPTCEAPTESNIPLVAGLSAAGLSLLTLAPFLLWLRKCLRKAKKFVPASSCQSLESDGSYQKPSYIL

[3] = target: T3, L-selectin (Homo sapiens) (UniProt P14151); assay: Inhibitory activity against L-selectin was determined; IA=Inactive
T3 sequence (whole entry): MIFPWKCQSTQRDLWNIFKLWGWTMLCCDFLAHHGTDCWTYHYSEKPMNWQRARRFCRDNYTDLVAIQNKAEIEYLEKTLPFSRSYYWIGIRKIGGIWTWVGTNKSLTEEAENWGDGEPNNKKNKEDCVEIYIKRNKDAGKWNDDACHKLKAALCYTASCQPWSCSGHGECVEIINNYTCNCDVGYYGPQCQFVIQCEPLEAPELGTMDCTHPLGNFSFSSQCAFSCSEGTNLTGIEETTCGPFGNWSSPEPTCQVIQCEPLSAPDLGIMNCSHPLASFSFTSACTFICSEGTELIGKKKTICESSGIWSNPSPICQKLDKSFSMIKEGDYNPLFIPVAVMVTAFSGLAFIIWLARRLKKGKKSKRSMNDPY

[4] = target: T4, P-selectin (Homo sapiens, UniProt P16109); assay: Inhibitory activity against P-selectin was determined
T4 sequence (P16109 whole entry): T1 sequence (whole entry)

Compound | Activity [1] | Activity [2] | Activity [3] | pIC50 [4]
C[C@@]12CCC[C@@](C)(C(=O)O)C1CC[C@]13C[C@H](O[C@H]4O[C@H](CO)[C@@H](O)[C@@H](O)[C@@H]4O)[C@](O)(CCC12)C3 (stereo partly specified) | inactive | inactive | inactive | –
C[C@@]12CCC[C@@](C)(C(=O)O)C1CC[C@@]13C[C@@H](O[C@H]4O[C@H](CO)[C@@H](O)[C@@H](O)[C@@H]4O)[C@@](C)(CCC12)C3 (stereo partly specified) | – | inactive | inactive | 4.22

From ChEMBL document CHEMBL1130542, “Design and synthesis of an -mannosyl terpenoid as selective inhibitor of P-selectin” (Bioorg Med Chem Lett, 1997)
